Results: ChEMBL document CHEMBL1759880, “A facile, one-pot synthesis, characterization and antimicrobial activity of o-hydroxy anilide derivatives and 1-substituted-1,3-dicyclohexylurea analogs of long chain carboxylic acids” (2011)
Values after ≈ are worked out from the molar mass of the structure shown.

Columns and labels:
[1] = test system: Streptococcus pyogenes; test: Antibacterial activity against Streptococcus pyogenes clinical isolate after 24 hrs by disc diffusion method; type: functional
[2] = test system: Klebsiella pneumoniae; test: Antibacterial activity against Klebsiella pneumoniae clinical isolate after 24 hrs by disc diffusion method; type: functional
[3] = test system: Pseudomonas aeruginosa; test: Antibacterial activity against Pseudomonas aeruginosa ATCC 27853 after 24 hrs by disc diffusion method
[4] = test system: Talaromyces marneffei; test: Antifungal activity against Penicillium marneffei after 48 hrs by broth dilution technique; type: functional
[5] = test system: Talaromyces marneffei; test: Antifungal activity against Penicillium marneffei after 3 to 4 days by disc diffusion method; type: functional
[6] = test system: Candida albicans; test: Antifungal activity against Candida albicans after 3 to 4 days by disc diffusion method; type: functional
[7] = test system: Aspergillus fumigatus; test: Antifungal activity against Aspergillus fumigatus after 48 hrs by broth dilution technique; type: functional
[8] = test system: Candida albicans; test: Antifungal activity against Candida albicans after 48 hrs by broth dilution technique; type: functional
[9] = test system: Escherichia coli; test: Antibacterial activity against Escherichia coli ATCC 25922 after 24 hrs by disc diffusion method; type: functional
[10] = test system: Streptococcus pyogenes; test: Antibacterial activity against Streptococcus pyogenes clinical isolate after 24 hrs by broth dilution technique; type: functional
[11] = test system: Klebsiella pneumoniae; test: Antibacterial activity against Klebsiella pneumoniae clinical isolate after 24 hrs by broth dilution technique; type: functional
[12] = test system: Staphylococcus aureus; test: Antibacterial activity against Staphylococcus aureus ATCC 25923 after 24 hrs by disc diffusion method; type: functional
[13] = test system: Trichophyton mentagrophytes; test: Antifungal activity against Trichophyton mentagrophytes after 3 to 4 days by disc diffusion method; type: functional
[14] = test system: Staphylococcus aureus; test: Antibacterial activity against Staphylococcus aureus ATCC 25923 after 24 hrs by broth dilution technique; type: functional; details: ATCC-25923, 24 h
[15] = test system: Trichophyton mentagrophytes; test: Antifungal activity against Trichophyton mentagrophytes after 48 hrs by broth dilution technique; type: functional
[16] = test system: Pseudomonas aeruginosa; test: Antibacterial activity against Pseudomonas aeruginosa ATCC 27853 after 24 hrs by broth dilution technique; details: ATCC-27853, 24 h
[17] = test system: Aspergillus fumigatus; test: Antifungal activity against Aspergillus fumigatus after 3 to 4 days by disc diffusion method; type: functional
[18] = test system: Escherichia coli; test: Antibacterial activity against Escherichia coli ATCC 25922 after 24 hrs by broth dilution technique; type: functional; details: ATCC-25922, 24 h

CCCCC/C=C\CC[C@H](O)CCCCCCCC(=O)Nc1ccccc1O
diameter of the inhibition zone (DIZ) [1]: 19.2 mm
diameter of the inhibition zone (DIZ) [2]: 17.8 mm
diameter of the inhibition zone (DIZ) [3]: 23.4 mm
MFC [4]: 100 µg/mL (≈ 257 µM)
MIC [4]: 25 µg/mL (≈ 64.2 µM)
diameter of the inhibition zone (DIZ) [5]: 10.7 mm
diameter of the inhibition zone (DIZ) [6]: 21.4 mm
MFC [7]: 50 µg/mL (≈ 128 µM)
MIC [7]: 25 µg/mL (≈ 64.2 µM)
MFC [8]: 25 µg/mL (≈ 64.2 µM)
MIC [8]: 12.5 µg/mL (≈ 32.1 µM)
diameter of the inhibition zone (DIZ) [9]: 20.9 mm
MBC [10]: 100 µg/mL (≈ 257 µM)
MIC [10]: 50 µg/mL (≈ 128 µM)
MBC [11]: 50 µg/mL (≈ 128 µM)
MIC [11]: 25 µg/mL (≈ 64.2 µM)
diameter of the inhibition zone (DIZ) [12]: 18.7 mm
diameter of the inhibition zone (DIZ) [13]: 15.2 mm
MBC [14]: 50 µg/mL (≈ 128 µM)
MIC [14]: 25 µg/mL (≈ 64.2 µM)
MFC [15]: 50 µg/mL (≈ 128 µM)
MIC [15]: 25 µg/mL (≈ 64.2 µM)
MBC [16]: 25 µg/mL (≈ 64.2 µM)
MIC [16]: 25 µg/mL (≈ 64.2 µM)
diameter of the inhibition zone (DIZ) [17]: 18.3 mm
MBC [18]: 50 µg/mL (≈ 128 µM)
MIC [18]: 25 µg/mL (≈ 64.2 µM)
